In this assay the target is CFTR-mediated chloride transport (Homo sapiens, UniProt P13569). The format is cell-based. Conditions: enteroid cells incubated with test compound 18-24 hours, acute 10 μM forskolin and 300 nM Compound III; for Max. Activity: % of chloride transport with 3 μM Compound A, 3 μM Compound II and 300 nM acute Compound III triple combination control. The essentials: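 Membrane-potential fluorescence AUC over 15 min quantified CFTR chloride transport after acute forskolin (10 μM), IBMX (100 μM) and Compound III (300 nM) in chloride-free buffer. Human enteroid cells were pretreated with compound for 18–24 h; % Activity is relative to 3 μM Compound A + 3 μM Compound II + 300 nM Compound III.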
Chain of CFTR-mediated chloride transport (P13569 whole entry, looked up): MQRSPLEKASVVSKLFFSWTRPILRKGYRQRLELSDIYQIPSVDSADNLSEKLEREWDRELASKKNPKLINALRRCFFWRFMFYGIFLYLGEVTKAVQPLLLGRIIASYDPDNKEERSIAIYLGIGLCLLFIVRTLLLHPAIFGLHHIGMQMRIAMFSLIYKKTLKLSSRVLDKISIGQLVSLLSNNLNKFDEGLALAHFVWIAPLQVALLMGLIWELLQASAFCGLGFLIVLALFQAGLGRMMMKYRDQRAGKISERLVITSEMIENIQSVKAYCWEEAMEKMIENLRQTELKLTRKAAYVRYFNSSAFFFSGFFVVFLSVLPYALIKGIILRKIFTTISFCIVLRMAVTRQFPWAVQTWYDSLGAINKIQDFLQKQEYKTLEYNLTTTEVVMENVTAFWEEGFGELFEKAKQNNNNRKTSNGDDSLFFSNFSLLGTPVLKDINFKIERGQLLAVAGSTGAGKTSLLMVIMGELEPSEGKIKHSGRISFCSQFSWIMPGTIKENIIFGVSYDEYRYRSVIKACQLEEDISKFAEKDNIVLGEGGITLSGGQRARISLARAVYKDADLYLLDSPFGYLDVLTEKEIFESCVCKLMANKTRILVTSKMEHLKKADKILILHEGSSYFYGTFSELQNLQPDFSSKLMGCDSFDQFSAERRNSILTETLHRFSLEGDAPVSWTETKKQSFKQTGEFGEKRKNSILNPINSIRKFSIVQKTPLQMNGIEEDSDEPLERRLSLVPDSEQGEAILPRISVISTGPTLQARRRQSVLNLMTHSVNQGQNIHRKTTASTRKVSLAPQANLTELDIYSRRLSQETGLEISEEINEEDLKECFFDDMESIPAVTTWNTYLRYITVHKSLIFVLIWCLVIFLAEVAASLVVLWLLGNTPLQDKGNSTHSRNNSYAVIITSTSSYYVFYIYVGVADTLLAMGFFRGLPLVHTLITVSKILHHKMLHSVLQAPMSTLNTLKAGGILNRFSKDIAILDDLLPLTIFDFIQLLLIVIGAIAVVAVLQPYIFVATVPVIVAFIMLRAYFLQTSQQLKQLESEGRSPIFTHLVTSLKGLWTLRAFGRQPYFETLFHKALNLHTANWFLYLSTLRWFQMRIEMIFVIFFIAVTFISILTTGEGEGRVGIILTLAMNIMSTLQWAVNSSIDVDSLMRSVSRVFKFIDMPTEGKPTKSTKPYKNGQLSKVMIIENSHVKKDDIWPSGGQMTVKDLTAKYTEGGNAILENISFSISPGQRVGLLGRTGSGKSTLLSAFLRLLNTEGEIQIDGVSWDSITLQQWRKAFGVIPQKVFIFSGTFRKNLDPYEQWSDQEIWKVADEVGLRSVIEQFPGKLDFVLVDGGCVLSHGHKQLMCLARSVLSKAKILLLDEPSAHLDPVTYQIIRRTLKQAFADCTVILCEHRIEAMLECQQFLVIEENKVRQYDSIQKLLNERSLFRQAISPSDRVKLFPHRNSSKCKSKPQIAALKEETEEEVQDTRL

The pEC50 is −log10 of the EC50, conventionally taken in molar units.

Molecules are shown by their SMILES. pEC50: −log10 of the molar value. A value given as a limit tells only on which side of the number the result lay.

For `CC1(C)C[C@H]2CCCn3ccc(n3)S(=O)(=O)NC(=O)c3ccc(-n4ccc(OCCCC5(C(F)(F)F)CC5)n4)nc3N1C2` (single isomer, unassigned) [Compound 166, 20,20-dimethyl-4-(3-{3-[1-(trifluoromethyl)cyclopropyl]propoxy}-1H-pyrazol-1-yl)-10λ^6-thia-1,3,9,14,22-pentaazatetracyclo[16.2.1.111,14.02,7]docosa-2(7),3,5,11(22),12-pentaene-8,10,10-trione], the pEC50 was above 6.00 and the “Max. Activity” value was “+++ (+++ is >60%)”.
For `CC1(C)C[C@@H]2CN1c1nc(-n3ccc(OCCC4(C(F)(F)F)CC4)n3)ccc1C(=O)NS(=O)(=O)c1ccn(n1)CCO2` (single isomer, unassigned) [Compound 167, 20,20-dimethyl-4-(3-{2-[1-(trifluoromethyl)cyclopropyl]ethoxy}-1H-pyrazol-1-yl)-17-oxa-10λ^6-thia-1,3,9,14,22-pentaazatetracyclo[16.2.1.111,14.02,7]docosa-2(7),3,5,11(22),12-pentaene-8,10,10-trione], the pEC50 is above 6.00 and the “Max. Activity” value is “++ (++ is 30-60%)”.
In the same order, the values of `CC(C)(C)CCO[C@H]1CCN(c2ccc3c(n2)N2C[C@@H](CCCNc4cccc(n4)S(=O)(=O)NC3=O)CC2(C)C)C1=O` (single isomer, unassigned) [Compound 170] are above 6.00 and “++ (++ is 30-60%)”.
Taken in the same sequence, the figures for `CC(C)(C)CCO[C@H]1CCN(c2ccc3c(n2)N2C[C@@H](CCCNc4cccc(n4)S(=O)(=O)NC3=O)CC2(C)C)C1=O` (single isomer, unassigned) [Compound 171] were above 6.00 and “+++ (+++ is >60%)”.
With `CC1(C)C[C@@H]2CCCNc3cccc(n3)S(=O)(=O)NC(=O)c3ccc(N4CC[C@H](OCCC5(C(F)(F)F)CC5)C4=O)nc3N1C2` (single isomer, unassigned) [Compound 172], the pEC50 is above 6.00 and the “Max. Activity” value is “++ (++ is 30-60%)”.
For the compound `CC1(C)C[C@@H]2CCCNc3cccc(n3)S(=O)(=O)NC(=O)c3ccc(N4CC[C@H](OCCC5(C(F)(F)F)CC5)C4=O)nc3N1C2` (single isomer, unassigned) [Compound 173], the pEC50 is above 6.00 and the “Max. Activity” value is on record as “+++ (+++ is >60%)”.
With `CC1(C)C[C@@H]2CCCNc3cccc(n3)S(=O)(=O)NC(=O)c3ccc(N4CC[C@H](CCCC5(C(F)(F)F)CC5)C4=O)nc3N1C2` (single isomer, unassigned) [Compound 174], the pEC50 is above 6.00 and the “Max. Activity” value is on record as “+++ (+++ is >60%)”.
Turning to `CC1(C)C[C@@H]2CCCNc3cccc(n3)S(=O)(=O)NC(=O)c3ccc(N4CC[C@H](CCCC5(C(F)(F)F)CC5)C4=O)nc3N1C2` (single isomer, unassigned) [Compound 175], the pEC50 is above 6.00 and the “Max. Activity” value is “+++ (+++ is >60%)”.
Regarding `CC1(C)C[C@@H]2CCCNc3cccc(n3)S(=O)(=O)NC(=O)c3ccc(N4CC[C@H](CCC5C6(CC6)C56CC6)C4=O)nc3N1C2` (single isomer, unassigned) [Compound 177], the pEC50 was above 6.00 and the “Max. Activity” value was “++ (++ is 30-60%)”.
Taken in the same sequence, the figures for `CC1(C)C[C@@H]2CCCNc3cccc(n3)S(=O)(=O)NC(=O)c3ccc(N4CC[C@H](CCC5C6(CC6)C56CC6)C4=O)nc3N1C2` (single isomer, unassigned) [Compound 178] were above 6.00 and “+++ (+++ is >60%)”.
`CC1(C)C[C@@H]2CCCNc3cccc(n3)S(=O)(=O)NC(=O)c3ccc(N4CC[C@H](OCCC5C6(CC6)C56CC6)C4=O)nc3N1C2` (single isomer, unassigned) [Compound 179]: the pEC50 was above 6.00 and the “Max. Activity” value was “++ (++ is 30-60%)”.
In the case of `CC1(C)C[C@@H]2CCCNc3cccc(n3)S(=O)(=O)NC(=O)c3ccc(N4CC[C@H](OCCC5C6(CC6)C56CC6)C4=O)nc3N1C2` (single isomer, unassigned) [Compound 180], the pEC50 is above 6.00 and the “Max. Activity” value is given as “+++ (+++ is >60%)”.
In the same order, the values of `CC1(C)C[C@H]2CCCn3ccc(n3)S(=O)(=O)NC(=O)c3ccc(N4CC[C@H](CCCC5(C(F)(F)F)CC5)C4=O)nc3N1C2` (single isomer, unassigned) [Compound 181, 20,20-Dimethyl-4-(2-oxo-3-{3-[1-(trifluoromethyl)cyclopropyl]propyl}pyrrolidin-1-yl)-10λ^6-thia-1,3,9,14,22-pentaazatetracyclo[16.2.1.111,14.02,7]docosa-2,4,6,11(22),12-pentaene-8,10,10-trione] are 5.52 to 6.00 and “++ (++ is 30-60%)”.
As to `CC1(C)C[C@H]2CCCn3ccc(n3)S(=O)(=O)NC(=O)c3ccc(N4CC[C@H](CCCC5(C(F)(F)F)CC5)C4=O)nc3N1C2` (single isomer, unassigned) [Compound 182, 20,20-dimethyl-4-(2-oxo-3-{3-[1-(trifluoromethyl)cyclopropyl]propyl}pyrrolidin-1-yl)-10λ^6-thia-1,3,9,14,22-pentaazatetracyclo[16.2.1.111,14.02,7]docosa-2,4,6,11(22),12-pentaene-8,10,10-trione], the pEC50 is above 6.00 and the “Max. Activity” value is given as “++ (++ is 30-60%)”.
Taken in the same sequence, the figures for `CC1(C)C[C@H]2CCCn3ccc(n3)S(=O)(=O)NC(=O)c3ccc(N4CC[C@H](OCCC5(C(F)(F)F)CC5)C4=O)nc3N1C2` (single isomer, unassigned) [Compound 191, 20,20-Dimethyl-4-(2-oxo-3-{2-[1-(trifluoromethyl)cyclopropyl]ethoxy}pyrrolidin-1-yl)-10λ^6-thia-1,3,9,14,22-pentaazatetracyclo[16.2.1.111,14.02,7]docosa-2,4,6,11(22),12-pentaene-8,10,10-trione] were above 6.00 and “++ (++ is 30-60%)”.
As for `CC1(C)C[C@H]2CCCn3ccc(n3)S(=O)(=O)NC(=O)c3ccc(N4CC[C@H](OCCC5(C(F)(F)F)CC5)C4=O)nc3N1C2` (single isomer, unassigned) [Compound 192, 20,20-dimethyl-4-(2-oxo-3-{2-[1-(trifluoromethyl)cyclopropyl]ethoxy}pyrrolidin-1-yl)-10λ^6-thia-1,3,9,14,22-pentaazatetracyclo[16.2.1.111,14.02,7]docosa-2,4,6,11(22),12-pentaene-8,10,10-trione], the pEC50 was above 6.00 and the “Max. Activity” value was “+++ (+++ is >60%)”.
Turning to `CC1(C)C[C@@H]2CN1c1nc(-n3ccc(OCCC4C5(CC5)C45CC5)n3)ccc1C(=O)NS(=O)(=O)c1cccc(n1)NCCO2` (single isomer, unassigned) [Compound 196, 8-[3-(2-{dispiro[2.0.2.1]heptan-7-yl}ethoxy)-1H-pyrazol-1-yl]-12,12-dimethyl-15-oxa-2λ^6-thia-3,9,11,18,23-pentaazatetracyclo[17.3.1.111,14.05,10]tetracosa-1(23),5(10),6,8,19,21-hexaene-2,2,4-trione], the pEC50 is 5.52 to 6.00 and the “Max. Activity” value is “++ (++ is 30-60%)”.
As to `CC1(C)C[C@@H]2CN1c1nc(-n3ccc(OCCC4C5(CC5)C45CC5)n3)ccc1C(=O)NS(=O)(=O)c1cccc(n1)NCCO2` (single isomer, unassigned) [Compound 197, 8-[3-(2-{dispiro[2.0.2.1]heptan-7-yl}ethoxy)-1H-pyrazol-1-yl]-12,12-dimethyl-15-oxa-2λ^6-thia-3,9,11,18,23-pentaazatetracyclo[17.3.1.111,14.05,10]tetracosa-1(23),5(10),6,8,19,21-hexaene-2,2,4-trione], the pEC50 was above 6.00 and the “Max. Activity” value is “+++ (+++ is >60%)”.
For `Cc1cn2nc1S(=O)(=O)NC(=O)c1ccc(-n3ccc(OCCC(C4CC4)C4CC4)n3)nc1N1C[C@H](CCC2)CC1(C)C` (single isomer, unassigned) [Compound 201, 4-[3-(3,3-Dicyclopropylpropoxy)-1H-pyrazol-1-yl]-12,20,20-trimethyl-10λ^6-thia-1,3,9,14,22-pentaazatetracyclo[16.2.1.111,14.02,7]docosa-2(7),3,5,11(22),12-pentaene-8,10,10-trione], the pEC50 was below 5.52 and the “Max. Activity” value was “+ (+ is <30%)”.
In the case of `Cc1cn2nc1S(=O)(=O)NC(=O)c1ccc(-n3ccc(OCCC(C4CC4)C4CC4)n3)nc1N1C[C@H](CCC2)CC1(C)C` (single isomer, unassigned) [Compound 202, 4-[3-(3,3-dicyclopropylpropoxy)-1H-pyrazol-1-yl]-12,20,20-trimethyl-10λ^6-thia-1,3,9,14,22-pentaazatetracyclo[16.2.1.111,14.02,7]docosa-2(7),3,5,11(22),12-pentaene-8,10,10-trione], the pEC50 was above 6.00 and the “Max. Activity” value is recorded as “++ (++ is 30-60%)”.
Taken in the same sequence, the figures for `CN1CCC[C@H]2CN(c3nc(-n4ccc(OCCC(C5CC5)C5CC5)n4)ccc3C(=O)NS(=O)(=O)c3cccc1n3)C(C)(C)C2` (single isomer, unassigned) [Compound 203, 8-[3-(3,3-Dicyclopropylpropoxy)-1H-pyrazol-1-yl]-12,12,18-trimethyl-2λ^6-thia-3,9,11,18,23-pentaazatetracyclo[17.3.1.111,14.05,10]tetracosa-1(22),5,7,9,19(23),20-hexaene-2,2,4-trione] were above 6.00 and “+++ (+++ is >60%)”.
With `CN1CCC[C@H]2CN(c3nc(-n4ccc(OCCC(C5CC5)C5CC5)n4)ccc3C(=O)NS(=O)(=O)c3cccc1n3)C(C)(C)C2` (single isomer, unassigned) [Compound 204, 8-[3-(3,3-dicyclopropylpropoxy)-1H-pyrazol-1-yl]-12,12,18-trimethyl-2λ^6-thia-3,9,11,18,23-pentaazatetracyclo[17.3.1.111,14.05,10]tetracosa-1(22),5,7,9,19(23),20-hexaene-2,2,4-trione], the pEC50 was below 5.52 and the “Max. Activity” value is listed as “+ (+ is <30%)”.

The values above are taken from US11866450B2, “Modulators of Cystic Fibrosis Transmembrane Conductance regulator, pharmaceutical compositions, methods of treatment, and process for making the modulators” (priority 2018, dated 2024).
